≈ marks a conversion by molar mass, not a printed value. Where two headings read alike, the source gives them in different places.
Columns and labels:
S. pyogenes 4340 = assay: In vitro antibacterial activity, MIC (clinical isolates); type: cell-based; conditions: Streptococcus pyogenes
S. marcescens GN 7577 = assay: In vitro antibacterial activity, MIC (standard strain); type: cell-based; conditions: Serratia marcescens, GN7577
S. faecalis 49 = assay: In vitro antibacterial activity, MIC (clinical isolates); type: cell-based; conditions: Enterococcus faecalis; S. faecalis 49; 10^6 cells/ml; clinical isolate; read-out: MIC
P. mirabilis IID 994 = assay: In vitro antibacterial activity, MIC (standard strain); type: cell-based; conditions: Proteus mirabilis, IID994; P. mirabilis IID 994; 10^6 cells/ml; standard strain; read-out: MIC
S. agalactiae 4468 = assay: In vitro antibacterial activity, MIC (clinical isolates); type: cell-based; conditions: Streptococcus agalactiae; S. agalactiae 4468; 10^6 cells/ml; clinical isolate; read-out: MIC
S. faecalis 214 = assay: as above; type: cell-based; conditions: Enterococcus faecalis; S. faecalis 214; 10^6 cells/ml; clinical isolate; read-out: MIC
S. pneumoniae 2950 = assay: as above; type: cell-based; conditions: Streptococcus pneumoniae
S. pneumoniae IID 552 = assay: In vitro antibacterial activity, MIC (standard strain); type: cell-based; conditions: Streptococcus pneumoniae, IID552; S. pneumoniae IID 552; 10^6 cells/ml; standard strain; read-out: MIC
[1] = test system: Streptococcus pyogenes S-8; assay: as above; type: cell-based; conditions: S8
S. pyogenes 3102 = assay: In vitro antibacterial activity, MIC (clinical isolates); type: cell-based; conditions: Streptococcus pyogenes
[2] = test system: Salmonella entritidis IID 604; assay: In vitro antibacterial activity, MIC (standard strain); type: cell-based; conditions: IID604; Salmonella entritidis IID 604; 10^6 cells/ml; standard strain; read-out: MIC
S. agalactiae 4394 = assay: In vitro antibacterial activity, MIC (clinical isolates); type: cell-based; conditions: Streptococcus agalactiae; S. agalactiae 4394; 10^6 cells/ml; clinical isolate; read-out: MIC
[3] = test system: Pseudomonas aeruginosa V-1; assay: In vitro antibacterial activity, MIC (standard strain); type: cell-based; conditions: V1; Pseudomonas aeruginosa V-1; 10^6 cells/ml; standard strain; read-out: MIC
S. agalactiae 4049 = assay: In vitro antibacterial activity, MIC (clinical isolates); type: cell-based; conditions: Streptococcus agalactiae; S. agalactiae 4049; 10^6 cells/ml; clinical isolate; read-out: MIC
S. faecalis 401 = assay: as above; type: cell-based; conditions: Enterococcus faecalis; S. faecalis 401; 10^6 cells/ml; clinical isolate; read-out: MIC
[4] = test system: Acinetobacter anitratus IID 876; assay: In vitro antibacterial activity, MIC (standard strain); type: cell-based; conditions: Acinetobacter calcoaceticus, IID876, Acinetobacter anitratus IID 876; 10^6 cells/ml; standard strain; read-out: MIC
[5] = test system: Serratia marcescens IID 618; assay: as above; type: cell-based; conditions: Serratia marcescens, IID618, Serratia marcescens IID 618; 10^6 cells/ml; standard strain; read-out: MIC
S. agalactiae 4368 = assay: In vitro antibacterial activity, MIC (clinical isolates); type: cell-based; conditions: Streptococcus agalactiae; S. agalactiae 4368; 10^6 cells/ml; clinical isolate; read-out: MIC
S. aureus Smith = assay: In vitro antibacterial activity, MIC (standard strain); type: cell-based, Staphylococcus aureus; conditions: Staphylococcus aureus, S. aureus Smith, 10^6 cells/ml, standard strain
S. pyogenes 3107 = assay: In vitro antibacterial activity, MIC (clinical isolates); type: cell-based; conditions: Streptococcus pyogenes
K. pneumoniae 1-220S = assay: In vitro antibacterial activity, MIC (standard strain); type: cell-based; conditions: Klebsiella pneumoniae, 1220S; K. pneumoniae 1-220S; 10^6 cells/ml; standard strain; read-out: MIC
S. faecalis 402 = assay: In vitro antibacterial activity, MIC (clinical isolates); type: cell-based; conditions: Enterococcus faecalis; S. faecalis 402; 10^6 cells/ml; clinical isolate; read-out: MIC
B. fragilis 0558 = assay: In vitro antibacterial activity, MIC (standard strain); type: cell-based, Bacteroides fragilis; conditions: Bacteroides fragilis, 0558, B. fragilis 0558; 10^6 cells/ml; standard strain; read-out: MIC
[6] = test system: Proteus vulgaris IFO 3167; assay: as above; type: cell-based; conditions: IFO3167; Proteus vulgaris IFO 3167; 10^6 cells/ml; standard strain; read-out: MIC
S. agalactiae 4342 = assay: In vitro antibacterial activity, MIC (clinical isolates); type: cell-based; conditions: Streptococcus agalactiae; S. agalactiae 4342; 10^6 cells/ml; clinical isolate; read-out: MIC
S. pneumoniae 15 = assay: as above; type: cell-based; conditions: Streptococcus pneumoniae; S. pneumoniae 15; 10^6 cells/ml; clinical isolate; read-out: MIC
S. pyogenes IID 692 = assay: In vitro antibacterial activity, MIC (standard strain); type: cell-based; conditions: Streptococcus pyogenes, IID692; S. pyogenes IID 692; 10^6 cells/ml; standard strain; read-out: MIC
[7] = test system: Escherichia coli NIHJ JC-2; assay: as above; type: cell-based; conditions: Escherichia coli, NIHJJC2, Escherichia coli NIHJ JC-2; 10^6 cells/ml; standard strain; read-out: MIC
[8] = test system: Klebsiella pneumoniae KY(GN)6445; assay: as above; type: cell-based; conditions: Klebsiella pneumoniae KY(GN)6445; 10^6 cells/ml; standard strain; read-out: MIC
C. ramosum = assay: as above; type: cell-based; conditions: Thomasclavelia ramosa; C. ramosum; 10^6 cells/ml; standard strain; read-out: MIC
[9] = test system: Yersinia enterocolitica IID 981; assay: as above; type: cell-based; conditions: IID981; Yersinia enterocolitica IID 981; 10^6 cells/ml; standard strain; read-out: MIC

With `CN(C)CC1CCN(c2c(F)cc3c(=O)c(C(=O)O)cn(C4CC4)c3c2F)C1` (centres unmarked) [Example 21, 1-Cyclopropyl-6,8-difluoro-1,4-dihydro-7-(3-dimethylaminomethyl-1-pyrrolidinyl)-4-oxo-3-quinolinecarboxylic acid] the MIC (S. pyogenes 4340; S. pyogenes 4340, 10^6 cells/ml, clinical isolate, read-out: MIC) was 0.1 µg/mL (≈ 0.255 µM), the MIC (S. marcescens GN 7577; S. marcescens GN 7577, 10^6 cells/ml, standard strain, read-out: MIC) was 1.56 µg/mL (≈ 3.99 µM) and the MIC (S. faecalis 49) was 0.2 µg/mL (≈ 0.511 µM). For the same compound, the MIC (P. mirabilis IID 994) was 0.1 µg/mL (≈ 0.255 µM), the MIC (S. agalactiae 4468) was 0.2 µg/mL (≈ 0.511 µM) and the MIC (S. faecalis 214) was 0.2 µg/mL (≈ 0.511 µM). It also gave an MIC (S. pneumoniae 2950; S. pneumoniae 2950, 10^6 cells/ml, clinical isolate, read-out: MIC) of 0.1 µg/mL (≈ 0.255 µM), an MIC (S. pneumoniae IID 552) of 0.2 µg/mL (≈ 0.511 µM) and an MIC ([1]; Streptococcus pyogenes S-8, 10^6 cells/ml, standard strain, read-out: MIC) of 0.1 µg/mL (≈ 0.255 µM). The MIC (S. pyogenes 3102; S. pyogenes 3102, 10^6 cells/ml, clinical isolate, read-out: MIC) was 0.1 µg/mL (≈ 0.255 µM), the MIC [2] was 0.1 µg/mL (≈ 0.255 µM) and the MIC (S. agalactiae 4394) was 0.2 µg/mL (≈ 0.511 µM). For the same compound, the MIC [3] was 0.39 µg/mL (≈ 0.996 µM), the MIC (S. agalactiae 4049) was 0.2 µg/mL (≈ 0.511 µM) and the MIC (S. faecalis 401) was 0.2 µg/mL (≈ 0.511 µM). For the same compound, the MIC [4] was 0.05 µg/mL (≈ 0.128 µM), the MIC [5] was 0.2 µg/mL (≈ 0.511 µM) and the MIC (S. agalactiae 4368) was 0.2 µg/mL (≈ 0.511 µM). The MIC (S. aureus Smith; read-out: MIC) was 0.05 µg/mL (≈ 0.128 µM), the MIC (S. pyogenes 3107; S. pyogenes 3107, 10^6 cells/ml, clinical isolate, read-out: MIC) was 0.1 µg/mL (≈ 0.255 µM) and the MIC (K. pneumoniae 1-220S) was 0.2 µg/mL (≈ 0.511 µM). The MIC (S. faecalis 402) was 0.2 µg/mL (≈ 0.511 µM), the MIC (B. fragilis 0558) was 0.2 µg/mL (≈ 0.511 µM) and the MIC [6] was 0.05 µg/mL (≈ 0.128 µM). For the same compound, the MIC (S. agalactiae 4342) was 0.2 µg/mL (≈ 0.511 µM), the MIC (S. pneumoniae 15) was 0.2 µg/mL (≈ 0.511 µM) and the MIC (S. pyogenes IID 692) was 0.2 µg/mL (≈ 0.511 µM). For the same compound, the MIC [7] was 0.05 µg/mL (≈ 0.128 µM), the MIC [8] was 0.05 µg/mL (≈ 0.128 µM) and the MIC (C. ramosum) was 0.78 µg/mL (≈ 1.99 µM). For the same compound, the MIC [9] was 0.1 µg/mL (≈ 0.255 µM).

With `CCn1cc(C(=O)O)c(=O)c2cc(F)c(N3CCNCC3)cc21` [NFLX, Norfloxacin, reference compound] the MIC (S. pyogenes 4340; 4340) was 1.56 µg/mL (≈ 4.89 µM), the MIC (S. marcescens GN 7577) was 1.56 µg/mL (≈ 4.89 µM) and the MIC (S. faecalis 49) was 3.13 µg/mL (≈ 9.8 µM). The MIC (P. mirabilis IID 994) was 0.05 µg/mL (≈ 0.157 µM), the MIC (S. agalactiae 4468) was 3.13 µg/mL (≈ 9.8 µM) and the MIC (S. faecalis 214) was 3.13 µg/mL (≈ 9.8 µM). It also gave an MIC (S. pneumoniae 2950; 2950) of 12.5 µg/mL (≈ 39.1 µM), an MIC (S. pneumoniae IID 552) of 3.13 µg/mL (≈ 9.8 µM) and an MIC ([1]; Streptococcus pyogenes) of 1.56 µg/mL (≈ 4.89 µM). It also gave an MIC (S. pyogenes 3102; 3102) of 1.56 µg/mL (≈ 4.89 µM), an MIC [2] of 0.1 µg/mL (≈ 0.313 µM) and an MIC (S. agalactiae 4394) of 6.25 µg/mL (≈ 19.6 µM). For the same compound, the MIC [3] was 0.78 µg/mL (≈ 2.44 µM), the MIC (S. agalactiae 4049) was 6.25 µg/mL (≈ 19.6 µM) and the MIC (S. faecalis 401) was 6.25 µg/mL (≈ 19.6 µM). For the same compound, the MIC [4] was 3.13 µg/mL (≈ 9.8 µM), the MIC [5] was 0.05 µg/mL (≈ 0.157 µM) and the MIC (S. agalactiae 4368) was 3.13 µg/mL (≈ 9.8 µM). It also gave an MIC (S. aureus Smith) of 1.56 µg/mL (≈ 4.89 µM), an MIC (S. pyogenes 3107; 3107) of 1.56 µg/mL (≈ 4.89 µM) and an MIC (K. pneumoniae 1-220S) of 0.2 µg/mL (≈ 0.626 µM). The MIC (S. faecalis 402) was 6.25 µg/mL (≈ 19.6 µM), the MIC (B. fragilis 0558) was 25 µg/mL (≈ 78.3 µM) and the MIC [6] was 0.025 µg/mL (≈ 0.0783 µM). The MIC (S. agalactiae 4342) was 6.25 µg/mL (≈ 19.6 µM), the MIC (S. pneumoniae 15) was 3.13 µg/mL (≈ 9.8 µM) and the MIC (S. pyogenes IID 692) was 3.13 µg/mL (≈ 9.8 µM). It also gave an MIC [7] of 0.025 µg/mL (≈ 0.0783 µM), an MIC [8] of 0.05 µg/mL (≈ 0.157 µM) and an MIC (C. ramosum) of 50 µg/mL (≈ 157 µM). For the same compound, the MIC [9] was 0.1 µg/mL (≈ 0.313 µM).

— patent publication EP0183129A1, “Quinolonecarboxylic acid derivatives” (KYORIN PHARMACEUTICAL CO., LTD., priority 1984, dated 1986)
